Experimental data published in patent US7781409B2, “Composition for external use” (Suntory Holdings Limited, priority 2003, dated 2010).
Where two headings read alike, the source gives them in different places.

Assays:
[1] = rat, J.Pharmacobio-Dyn., 13, 688, 1990; cited from earlier work
human skin = conditions: cream containing the compound applied, Fragrance Journal 1997; cited from earlier work
guinea pig skin = conditions: shaved back, external application, Fragrance Journal 1997; cited from earlier work
[2] = Pharmacokinetics at oral ingestion by a rat: intact form in blood; type: in vivo
[3] = test system: keratinocytes (HaCaT) derived from human skin epidermis; assay: Protective effect on cell death of keratinocytes (HaCaT) by UVB irradiation (WST-1 cell survival rate); type: cell-based; conditions: same concentration, compared with ascorbic acid or 2-O-(α-D-glucopyranosyl)ascorbic acid; FIG. 1
Method: Human skin keratinocytes HaCaT (cell line gifted by Dr. Fusenig of Heidelberg University) was seeded to 10% bovine fetal serum (FBS)-containing Dulbecco modified Eagle medium (DMEM) at 10,000 cells/well in a 24-well plate, and after 18 hours, 35 millijoule/square centimeter (mJ/cm^2) of UBV (maximum wavelength 312 nm) was irradiated. Two hours before the irradiation, 20 to 100 μM of 2-O-(β-D-glucopyranosyl)ascorbic acid was added, and such ascorbic acid was removed immediately before the irradiation and then rinsed. Irradiation was performed in PBS in the absence of a drug, and after irradiation, culturing was continued in a FBS 10%-containing DMEM medium, and 24 hours after irradiation, a cell survival rate was investigated by a method for measuring mitochondrion dehydrogenase activity with the use of 2-(4-iodophenyl)-3-(4-nitrophenyl)-5-(2,4-disulfophenyl)-2H-tetrazolium monosodium salt (WST-1). Similarly, as Comparative Example, 2-O-(α-D-glucopyranosyl) ascorbic acid and ascorbic acid were studied, and the results are also shown in FIG. 1.

[4] = test system: normal human dermal fibroblasts (NHDF); assay: Collagen synthesis of normal human dermal fibroblasts (3H-proline incorporation, collagenase-sensitive); type: cell-based; conditions: compared with 2-O-(α-D-glucopyranosyl)ascorbic acid or ascorbic acid; FIG. 3
Method: Normal human dermal fibroblasts NHDF are seeded in a dish having a diameter of 100 millimeter at 370,000 cells. […] After additional 1 hour, 0.12 mL (120 μCi) of L-(2,3-^3H) proline is added, followed by culturing for 48 hours. After culturing, the medium is removed, and a cell sheet is rinsed with PBS four times. Then, cells are peeled with trypsin, cells are lysed with an alkali, and neutralized to obtain an intracellular protein. The protein is subjected to collagen degradation with collagenase of Clostridium to obtain a protein fraction, and radioactivity of the fraction is measured with a liquid scintillation counter using […]. Separately, radioactivity of an intracellular protein fraction which has not been treated with collagenase is similarly measured with a liquid scintillation counter. A difference between respective radioactivities obtained is adopted as collagen synthesis activity.

[5] = test system: human isolated skin piece; conditions: female, 5 h, 100 mM, pH 7.25
[6] = test system: human skin keratinocytes HaCaT; assay: Concentration of intracellular ascorbic acid in human skin keratinocytes; type: cell-based; conditions: compared with 2-O-(α-D-glucopyranosyl)ascorbic acid and ascorbic acid; FIG. 2
Method: At 3 to 24 hours after addition, a medium is removed, rinsed twice with ice-cooled PBS, and a cell sheet is peeled with trypsin to make single cell state. This is suspended in PBS containing 50 μM dithiothreitol (DTT), and rinsed three times by centrifugation. The cell suspension is disrupted with a potter-type teflon (registered trademark) homogenizer, and then frozen and thawed twice. […] SHODEX® ODSpak (manufactured by SHOWA DENKO K.K., 4.6×150 mm) , mobile phase: 0.1 M KH2PO4-H3PO4 (pH 2.35)-0.1 mM EDTA-2Na, flow rate: 1.5 mL/min).

burn patient = conditions: applied, Japanese Cosmetic Science Society 1998; cited from earlier work
pig skin = conditions: 10% aqueous solution, pre-administration for 3 days to one week, Br. J. Dermatol. 1992; cited from earlier work

O=C1O[C@H]([C@@H](O)CO)C(O)=C1O[C@H]1O[C@H](CO)[C@@H](O)[C@H](O)[C@H]1O [2-O-(α-D-glucopyranosyl)ascorbic acid]
Intact form in blood after oral ingestion [1]: not detected as an intact form in blood | Pigmentation due to ultraviolet-ray irradiation (human skin): suppressed | Inducement of skin inflammation due to UVB irradiation (guinea pig skin): suppressed

O=C1O[C@H]([C@@H](O)CO)C(O)=C1O[C@@H]1O[C@H](CO)[C@@H](O)[C@H](O)[C@H]1O [AβG, 2-O-(β-D-glucopyranosyl)ascorbic acid]
Intact form in blood after oral ingestion [2]: detected in blood | Suppression of cell death of keratinocytes (HaCaT) due to UVB irradiation [3]: clearly suppressed more strongly cell death | Collagen synthesis by normal human dermal fibroblasts (NHDF) [4]: has higher activity | Ratio (%) of reduced form of vitamin C occupied in total vitamin C in skin, Dermis [5]: 25% | Ratio (%) of reduced form of vitamin C occupied in total vitamin C in skin, Epidermis [5]: 67% | Total vitamin C in skin, Dermis [5]: 3 nmol/g tissue | Total vitamin C in skin, Epidermis [5]: 15 nmol/g tissue | Uptake amount of AβG into skin piece, Dermis [5]: 500 | Uptake amount of AβG into skin piece, Epidermis [5]: 3,400 | Concentration of intracellular ascorbic acid in human skin keratinocytes [6]: maintained at a highest concentration for a longest term

O=C1O[C@H]([C@@H](O)CO)C(O)=C1OP(=O)(O)O [ascorbic acid 2-phosphate]
Cure of burn (burn patient): cured without scar

O=C1O[C@H]([C@@H](O)CO)C(O)=C1O [ascorbic acid]
Ultraviolet-ray disorder (pig skin): ultraviolet-ray disorder can be alleviated | Inducement of skin inflammation due to UVB irradiation (guinea pig skin): suppressed
